Source: patent US11306095B2 (EAST CHINA UNIVERSITY OF SCIENCE AND TECHNOLOGY, priority 2015, dated 2022)
Converted amounts (≈) assume the structure as drawn. Where two headings read alike, the source gives them in different places.

Tests used:
[1] = test system: A431 cells (EGFR wild type); assay: Inhibitory activity on cell proliferation, A431; type: cell-based; settings: Homo sapiens, A-431
Method: (§1) Cell proliferation activity was assessed by MTS assay. Cells were exposed to processing conditions for 72 hours and the number of cells used in each experiment for each cell line was adjusted based on absorbance values (absorbance values at 490 nm, 1.3-2.2). Six concentration gradients (0.1 nM-10 μM) were set for the compounds to be tested, wherein at least 6 sets of parallel controls for each concentration were used.
(§2) H1975, A431 cells were cultured in corresponding media, and cells were passaged at least twice after resuscitation and then used for experiments. Cells at Log phase were trypsinized and resuspended in culture medium. H1975 (1000 cells per well), A431 (2000 cells per well) were seeded in 96-well plates in a volume of 100 μL; and 6 sets of parallel controls and 7 columns were set. The plate was placed in a 37° C. 5% CO2 incubator overnight. Compounds were dissolved in DMSO to a concentration of […], and then the concentration was gradually diluted to 10 μM, 1 μM, 0.1 μM, 0.01 μM, 0.001 μM, 0.0001 μM per liter, respectively. 2 μL of the compound solution was added to 998 μL of medium, and the mixture was thoroughly mixed. 100 μL of the mixture was added to a 96-well plate. […] After culturing for 68 hours, 20 μL of MTT (5 mg/mL) was added. After 4 hours, the supernatant was discarded and 150 μL of DMSO was added. After shaking for 10 minutes, the plate was read with Synergy HT (Bio TeK) (OD490). Data were calculated using GraphPad Prism version 4.0 and IC50 values were obtained using a non-linear regression model of dose response curve.

Wild type EGFR = target: T1, Wild type EGFR (Homo sapiens, UniProt P00533); assay: Kinase activity test (FRET), wild type EGFR; type: biochemical
T1 construct: purchased Invitrogen PV3872
Method: (§3) EGFR-TK catalyses transfer of one phosphate group of adenosine triphosphate (ATP) to polypeptide substrate, poly(Glu, Tyr)4:1, which is labeled with two fluorescent groups coumarin and fluorescein.
(§4) 2.5 μL of Test Compounds, 5 μL Kinase/Peptide Substrate Mixture, 2.5 μL ATP Solution were added into a 384-well plate, and the 10 μL of reaction system was shaken for 30 s and incubated at room temperature for 1 h. 5 μL of Development Solution was added and the 15 μL of reaction system was shaken for 30 s, and incubated at room temperature for 1 h. […] The inhibitory rates of the compounds at 7 concentration gradients were determined and the IC50 value for each compound was calculated by Origin 8.0 fitting curve.
(§5) 10 concentration gradients from 5.1×10^−11 mol/L to 1.0×10^−6 mol/L were set for all compounds to be tested.
(§6) Compounds were diluted in DMSO for three times from 5.1×10^−9 M to 1×10^−4 M. 4 μL of the compound was dissolved in 96 μL of water to obtain a 4× compound solution. […] The 10 μL kinase reaction consisted of 2.5 μL compound solution, 5 μL kinase/peptide mix, 2.5 μL ATP solution. […] 5 μL of phosphorylated peptide solution, instead of the kinase/peptide mixture, was used as a 100% phosphorylation control. […] The plates were thoroughly mixed and incubated at room temperature for 1.5 hours. 5 μL of Development Solution was added into each well and then incubated for another 1 hour at room temperature, unphosphorylated peptides were cleaved during this period. Finally, 5 μL Stop Reagent was added to quench the reaction. The plates were measured with EnVision Multilabel Reader (Perkin Elmer). The experimental data were calculated using GraphPad Prism version 4.0. Each experiment was repeated more than 3 times.

[2] = test system: H1975 cells (EGFR L858R/T790M); assay: Inhibitory activity on cell proliferation, H1975; type: cell-based; settings: Homo sapiens, NCI-H1975
Method: as §1, §2

EGFR-L858R/T790M = target: T2, EGFR-L858R/T790M (Homo sapiens, UniProt P00533, L858R/T790M); assay: Kinase activity test (FRET), EGFR T790M/L858R; type: biochemical
T2 construct: purchased Invitrogen PV4879
Method: as §3, §4, §5, §6

[3] = Determination of solubility in water (PBS 20 mM, pH 6.8); type: physicochemical; settings: PBS buffer, aqueous buffer, thermodynamic from solid
Method: The suspension was filtered through a 0.22 μm PVDF filter, and then diluted to an appropriate concentration with methanol (v=50%) and PBS (v=50%), and the absorbance was measured by a UV spectrophotometer. About 3 mg of compound was accurately weighed, and methanol was added for preparing a stock solution of 1 mg/mL. The above stock solution was taken and prepared into a solution at concentrations of 0.05, 0.04, 0.03, 0.02 and 0.01 mg/mL, respectively, PBS solution (v=50%) was added and the absorbance value was measured. Concentration c (mg/mL) as horizontal ordinate vs absorbance A as longitudinal coordinate was plotted, and a line was fitted for obtaining a standard curve (correlation coefficient greater than 0.998). The solubility of a compound in water was calculated from the standard curve.

[4] = Compound 53 before and after resolution, read-out: Inhibitory IC50 means (μM) ± SD value on tumor cell growth activity A431
[5] = Compound 53 before and after resolution, read-out: Inhibitory IC50 means (nM) ± SD value on tyrosine kinase activity EGFR
[6] = Compound 53 before and after resolution, read-out: Inhibitory IC50 means (μM) ± SD value on tumor cell growth activity NCI-H1975
[7] = Compound 53 before and after resolution, read-out: Inhibitory IC50 means (nM) ± SD value on tyrosine kinase activity EGFR/T790M/L858R
[8] = A431, 72 hours, read-out: Inhibitory activity on proliferation of cells (IC50, μM) A431
[9] = wild type EGFR, read-out: Inhibitory activity of EGFR on kinase (IC50, nM) WT
[10] = pH 6.8, 20 mM PBS, read-out: Solubility (pH 6.8, g/mL)
[11] = H1975, 72 hours, read-out: Inhibitory activity on proliferation of cells (IC50, μM) H1975
[12] = EGFR T790M/L858R, read-out: Inhibitory activity of EGFR on kinase (IC50, nM) T790M/L858R
[13] = wild type EGFR, read-out: Inhibitory activity of EGFR on kinase (IC50) WT
[14] = EGFR T790M/L858R, read-out: Inhibitory activity of EGFR on kinase (IC50) T790M/L858R

T2 sequence (P00533 25-1210 T790M/L858R): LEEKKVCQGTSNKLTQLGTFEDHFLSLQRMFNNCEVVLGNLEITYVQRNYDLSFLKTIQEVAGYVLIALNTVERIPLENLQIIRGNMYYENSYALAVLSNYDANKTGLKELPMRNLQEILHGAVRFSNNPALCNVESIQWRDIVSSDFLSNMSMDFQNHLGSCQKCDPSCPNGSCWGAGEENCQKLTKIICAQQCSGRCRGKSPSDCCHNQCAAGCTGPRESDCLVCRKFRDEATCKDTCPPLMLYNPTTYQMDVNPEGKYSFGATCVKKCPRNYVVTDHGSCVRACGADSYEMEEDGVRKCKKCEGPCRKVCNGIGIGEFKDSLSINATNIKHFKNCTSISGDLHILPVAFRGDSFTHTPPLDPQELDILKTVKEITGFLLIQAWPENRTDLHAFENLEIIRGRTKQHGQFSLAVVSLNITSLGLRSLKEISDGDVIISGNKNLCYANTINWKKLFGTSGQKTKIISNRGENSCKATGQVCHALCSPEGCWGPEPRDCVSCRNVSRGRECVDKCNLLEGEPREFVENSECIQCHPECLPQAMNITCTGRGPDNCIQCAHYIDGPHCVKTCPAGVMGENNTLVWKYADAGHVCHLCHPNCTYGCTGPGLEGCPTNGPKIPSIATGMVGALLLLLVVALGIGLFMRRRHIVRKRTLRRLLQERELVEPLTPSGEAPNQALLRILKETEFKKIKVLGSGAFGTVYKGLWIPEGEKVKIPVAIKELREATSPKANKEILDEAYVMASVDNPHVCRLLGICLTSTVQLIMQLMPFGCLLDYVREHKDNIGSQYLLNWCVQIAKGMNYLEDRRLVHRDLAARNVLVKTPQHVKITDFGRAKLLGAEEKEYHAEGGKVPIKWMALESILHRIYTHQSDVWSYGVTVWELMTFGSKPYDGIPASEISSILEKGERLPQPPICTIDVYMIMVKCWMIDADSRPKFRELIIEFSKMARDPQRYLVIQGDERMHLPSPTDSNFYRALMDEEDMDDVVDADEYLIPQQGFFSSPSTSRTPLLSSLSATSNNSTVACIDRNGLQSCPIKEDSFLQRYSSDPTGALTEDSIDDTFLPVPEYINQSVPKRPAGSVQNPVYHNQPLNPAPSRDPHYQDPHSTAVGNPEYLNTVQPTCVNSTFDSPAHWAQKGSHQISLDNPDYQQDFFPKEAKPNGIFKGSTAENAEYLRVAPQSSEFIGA
T1 sequence (P00533 25-1210): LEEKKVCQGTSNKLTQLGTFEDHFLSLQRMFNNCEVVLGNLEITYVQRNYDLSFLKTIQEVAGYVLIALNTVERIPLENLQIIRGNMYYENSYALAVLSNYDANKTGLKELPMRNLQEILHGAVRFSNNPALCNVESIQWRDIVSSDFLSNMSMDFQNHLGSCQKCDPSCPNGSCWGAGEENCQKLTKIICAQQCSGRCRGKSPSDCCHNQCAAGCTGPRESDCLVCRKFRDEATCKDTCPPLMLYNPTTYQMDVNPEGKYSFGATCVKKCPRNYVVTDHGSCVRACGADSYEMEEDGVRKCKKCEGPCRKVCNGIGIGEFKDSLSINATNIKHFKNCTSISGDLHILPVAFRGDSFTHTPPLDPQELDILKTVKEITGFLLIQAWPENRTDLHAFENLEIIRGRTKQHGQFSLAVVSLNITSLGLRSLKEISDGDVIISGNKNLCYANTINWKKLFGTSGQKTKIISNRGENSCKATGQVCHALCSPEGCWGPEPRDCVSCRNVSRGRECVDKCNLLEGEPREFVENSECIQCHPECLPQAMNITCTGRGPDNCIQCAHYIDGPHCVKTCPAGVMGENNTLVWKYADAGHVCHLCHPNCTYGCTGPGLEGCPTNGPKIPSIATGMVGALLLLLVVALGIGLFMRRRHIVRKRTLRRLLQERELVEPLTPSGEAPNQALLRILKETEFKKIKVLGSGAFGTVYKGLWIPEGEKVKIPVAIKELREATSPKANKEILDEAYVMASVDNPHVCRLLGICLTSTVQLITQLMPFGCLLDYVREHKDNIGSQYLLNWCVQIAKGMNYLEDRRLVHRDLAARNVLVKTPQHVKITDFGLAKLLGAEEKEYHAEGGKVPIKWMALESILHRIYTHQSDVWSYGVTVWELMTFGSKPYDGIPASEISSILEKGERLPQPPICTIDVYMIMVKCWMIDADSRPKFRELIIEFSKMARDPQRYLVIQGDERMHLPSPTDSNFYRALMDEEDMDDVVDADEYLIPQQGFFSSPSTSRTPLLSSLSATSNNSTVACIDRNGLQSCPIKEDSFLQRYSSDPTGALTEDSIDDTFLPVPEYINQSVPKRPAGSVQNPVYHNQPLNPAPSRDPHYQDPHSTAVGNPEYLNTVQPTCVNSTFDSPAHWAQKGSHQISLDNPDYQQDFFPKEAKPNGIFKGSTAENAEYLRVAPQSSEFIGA

| IC50 [1, 8] | IC50 (Wild type EGFR; [9]) | solubility [3, 10] | IC50 [2, 11] | IC50 (EGFR-L858R/T790M; [12]) | SMILES | also measured |
| --- | --- | --- | --- | --- | --- | --- |
| – | – | – | – | – | C=CC(=O)N1CCC[C@@H](Cn2c(=O)c(-c3ccccc3)nc3cnc(Nc4ccc(N5CCN(C)CC5)cc4OC)nc32)C1 [53-1 (R)] | IC50 [1, 4]: 5.31 ± 1.04 µM; IC50 (Wild type EGFR; [5]): 273 ± 38 nM; IC50 [2, 6]: > 10 µM; IC50 (EGFR-L858R/T790M; [7]): 295 ± 85 nM |
| – | – | – | – | – | C=CC(=O)N1CCC[C@H](Cn2c(=O)c(-c3ccccc3)nc3cnc(Nc4ccc(N5CCN(C)CC5)cc4OC)nc32)C1 [53-2 (S)] | IC50 [1, 4]: > 10 µM; IC50 (Wild type EGFR; [5]): 8 ± 0.8 nM; IC50 [2, 6]: 0.062 ± 0.012 µM; IC50 (EGFR-L858R/T790M; [7]): 15.2 ± 2.3 nM |
| 13.8 µM | 251 nM | 1.28 mg/mL (≈ 2610 µM) | 12.2 µM | 129 nM | C=CC(=O)N1CC[C@H](n2c(=O)cnc3cnc(Nc4ccc(N5CCN(C)CC5)cc4OC)nc32)C1 [Compound 1] | – |
| 89.6 µM | – | 11.1 mg/mL (≈ 22600 µM) | 18.2 µM | – | C=CC(=O)N1CC[C@@H](n2c(=O)cnc3cnc(Nc4ccc(N5CCN(C)CC5)cc4OC)nc32)C1 [Compound 2] | IC50 (Wild type EGFR; [13]): > 10000 nM; IC50 (EGFR-L858R/T790M; [14]): > 10000 nM |
| 60.6 µM | – | > 11.4 mg/mL | 33.7 µM | – | C=CC(=O)N1CCC[C@H](n2c(=O)cnc3cnc(Nc4ccc(N5CCN(C)CC5)cc4OC)nc32)C1 [Compound 3] | IC50 (Wild type EGFR; [13]): > 10000 nM; IC50 (EGFR-L858R/T790M; [14]): > 10000 nM |
| 0.94 µM | 4.5 nM | – | 0.009 µM | – | C=CC(=O)Nc1cccc(-n2c(=O)cnc3cnc(Nc4ccc(N5CCN(C)CC5)c(OC)c4)nc32)c1 [Compound 4] | solubility ([3]; 20 mM phosphate buffer, pH 6.8, read-out: solubility in water): 1.37 mg/mL (≈ 2670 µM); IC50 ([2]; H1975 (EGFR-T790M/L858R), read-out: IC50 of inhibiting proliferation of H1975 cells): 0.009 µM; IC50 (EGFR-L858R/T790M; read-out: IC50 of inhibitory activity on EGFR-T790M/L858R kinase): 3.9 nM |
| 0.82 µM | 2.4 nM | 0.122 mg/mL (≈ 246 µM) | 0.006 µM | 0.6 nM | C=CC(=O)Nc1cccc(-n2c(=O)cnc3cnc(Nc4ccc(N5CCN(C)CC5)c(C)c4)nc32)c1 [Compound 5] | – |
| 1.69 µM | 106 nM | 0.0518 mg/mL (≈ 98.4 µM) | 0.46 µM | 14.8 nM | C=CC(=O)Nc1cccc(-n2c(=O)cnc3cnc(Nc4cc(C)c(N5CCN(C)CC5)cc4OC)nc32)c1 [Compound 6, N-(3-(2-4-((2-methoxy-5-methyl-4-(4-methyl-1-piperazinyl)phenyl)amino)-7-oxo-8(7H)-pteridinyl)phenyl)acrylamide] | – |
| 20.5 µM | 45.2 nM | < 0.025 mg/mL | 0.197 µM | 9.5 nM | C=CC(=O)Nc1cccc(-n2c(=O)cnc3cnc(Nc4ccc(N5CCN(C(C)=O)CC5)cc4OC)nc32)c1 [Compound 7, N-(3-(2-((4-(4-acetyl-1-piperazinyl)-2-methoxyphenyl)amino)-7-oxo-8(7H)-pteridinyl)phenyl)acrylamide] | – |
| 0.97 µM | 5.7 nM | 0.281 mg/mL (≈ 549 µM) | 0.09 µM | 2.1 nM | C=CC(=O)Nc1cccc(-n2c(=O)cnc3cnc(Nc4ccc(CCN5CCN(C)CC5)cc4)nc32)c1 [Compound 8, N-(3-(2-((4-(2-(4-methyl-1-piperazinyl)ethyl)phenyl)amino)-7-oxo-8(7H)-pteridinyl)phenyl)acrylamide] | – |
| 7.53 µM | 93.7 nM | 0.399 mg/mL (≈ 716 µM) | 2.6 µM | 191 nM | C=CC(=O)Nc1cccc(-n2c(=O)cnc3cnc(Nc4ccc(N5CCN(C)CC5)cc4OCCOC)nc32)c1 [Compound 10, N-(3-(2-((2-(methoxyethoxy)-4-(4-methyl-1-piperazinyl)phenyl)amino)-7-oxo-8(7H)-pteridinyl)phenyl)acrylamide] | – |
| 8.09 µM | 2.2 nM | 0.0486 mg/mL (≈ 89.6 µM) | 0.2 µM | 7.3 nM | C=CC(=O)Nc1cccc(-n2c(=O)cnc3cnc(Nc4ccc(N5CCN(CCO)CC5)cc4OC)nc32)c1 [Compound 11, N-(3-(2-((4-(4-(2-hydroxyethyl)-1-piperazinyl)-2-methoxyphenyl)amino)-7-oxo-8 (7H)-pteridinyl)phenyl)acrylamide] | – |
| 2.52 µM | 3.5 nM | 0.369 mg/mL (≈ 683 µM) | 0.006 µM | 6.2 nM | C=CC(=O)Nc1cccc(-n2c(=O)cnc3cnc(Nc4ccc(N5CCC(N(C)C)CC5)cc4OC)nc32)c1 [Compound 12] | – |
| 1.48 µM | 4.2 nM | 0.0089 mg/mL (≈ 17 µM) | 0.046 µM | 5.7 nM | C=CC(=O)Nc1cccc(-n2c(=O)c(C(C)C)nc3cnc(Nc4ccc(N5CCN(C)CC5)cc4)nc32)c1 [Compound 13, N-(3-(6-isopropyl-2-((4-(4-methyl-1-piperazinyl)phenyl)amino)-7-oxo-8(7H)-pteridinyl)phenyl)acrylamide] | – |
| – | 2300 nM | 0.514 mg/mL (≈ 1020 µM) | – | 2250 nM | C=CC(=O)N1CCC(n2c(=O)cnc3cnc(Nc4ccc(N5CCN(C)CC5)cc4OC)nc32)CC1 [Compound 15, 8-(1-acryloyl-4-piperidinyl)-2-((2-methoxy-4-(4-methyl-1-piperazinyl)phenyl)amino)-7(8H)-pteridinone] | – |
| > 10 µM | 4700 nM | 0.956 mg/mL (≈ 1840 µM) | > 10 µM | > 10000 nM | C=CC(=O)N1CCC[C@@H](Cn2c(=O)cnc3cnc(Nc4ccc(N5CCN(C)CC5)cc4OC)nc32)C1 [Compound 16, (R)-8-((1-acryloyl-3-piperidinyl)methyl)-2-((2-methoxy-4-(4-methyl-1-piperazinyl)phenyl)amino)-7(8H)-pteridinone] | – |
| > 10 µM | 2190 nM | 0.957 mg/mL (≈ 1850 µM) | 1.42 µM | 191 nM | C=CC(=O)N1CCC[C@H](Cn2c(=O)cnc3cnc(Nc4ccc(N5CCN(C)CC5)cc4OC)nc32)C1 [Compound 17] | – |
| – | – | < 0.01 mg/mL | – | – | C=CC(=O)N1CCCC(n2c(=O)c(-c3ccccc3)nc3cnc(Nc4ccc(N5CCN(C)CC5)cc4OC)nc32)C1 (centres unmarked) [Compound 58, 8-(1-acryloyl-3-piperidinyl)-2-((2-methoxy-4-(4-methyl-1-piperazinyl)phenyl)amino)-6-phenyl-7(8H)pteridinone] | – |
